Results: patent publication US8895564B2, “Biguanide derivative compound” (Nihon University, priority 2010, dated 2014)

system: not listed separately; test: Cytotoxic test, alamar blue assay; type: cell-based; conditions: human, undifferentiated SH-SY5Y neuroblastoma cells, 24 hours exposure, concentration at which respiratory activity decreased to 50%, read-out: IC50 Cytotoxicity
Description: Using SH-SY5Y, a cytotoxic test was performed. In this test also, memantine and amiloride were used as control compounds.
The SH-SY5Y neuroblastoma cell line was purchased from American Type Culture Collection. The cells were cultured in the medium containing penicillin (100 U/mL), streptomycin (100 U/mL), and inactivated fetal bovine serum (Gibco). The cells were maintained in a CO2 incubator at 37° C. under the conditions of 95% air and 5% CO2.
Undifferentiated SH-SY5Y cells were exposed to various concentrations of Compounds 1, 2, and 3 for 24 hours. The alamar blue stock solution was transferred to a 96-well plate so that the final assay volume was 100 μL/well with a final alamar blue concentration of 10%. Six hours later, reduced alamar blue was measured at a wavelength of 570 nm. As to the survival rate (%), assuming that the mitochondrial respiratory activity in the drug-free cells as 100%, the respiratory activity of the cells exposed to Compounds 1, 2, and 3 for 24 hours was expressed as relative values.

Row | SMILES | IC50 at 24 h [µM]
1 | N=C(N)NC(=O)c1nc(Cl)c(N)nc1N [Amiloride, reference compound] | 563
2 | CC12CC3CC(C)(C1)CC(N)(C3)C2 [Memantine, reference compound] | 146
3 | N=C(NCCc1ccc(Cl)cc1)NC(=N)NNC(=O)c1nc(Cl)c(N)nc1N [Compound 2, 1-(3,5-diamino-6-chloropyrazinamide)-5-[2-(4-chlorophenyl)ethyl]biguanide] | 978
4 | N=C(NCCc1ccc(Cl)c(Cl)c1)NC(=N)NNC(=O)c1nc(Cl)c(N)nc1N [Compound 3] | 277
5 | N=C(NCCc1ccccc1)NC(=N)NNC(=O)c1nc(Cl)c(N)nc1N [Compound 1] | 2680

molecular target: NR1/NR2A (Rattus norvegicus, UniProt P35439+Q00959); test: Inhibition of NMDA receptor NR1/NR2A activity in Xenopus laevis oocytes, two-electrode voltage clamp method; conditions: not given
Sequence (Q00959 23-1464, other chains not shown): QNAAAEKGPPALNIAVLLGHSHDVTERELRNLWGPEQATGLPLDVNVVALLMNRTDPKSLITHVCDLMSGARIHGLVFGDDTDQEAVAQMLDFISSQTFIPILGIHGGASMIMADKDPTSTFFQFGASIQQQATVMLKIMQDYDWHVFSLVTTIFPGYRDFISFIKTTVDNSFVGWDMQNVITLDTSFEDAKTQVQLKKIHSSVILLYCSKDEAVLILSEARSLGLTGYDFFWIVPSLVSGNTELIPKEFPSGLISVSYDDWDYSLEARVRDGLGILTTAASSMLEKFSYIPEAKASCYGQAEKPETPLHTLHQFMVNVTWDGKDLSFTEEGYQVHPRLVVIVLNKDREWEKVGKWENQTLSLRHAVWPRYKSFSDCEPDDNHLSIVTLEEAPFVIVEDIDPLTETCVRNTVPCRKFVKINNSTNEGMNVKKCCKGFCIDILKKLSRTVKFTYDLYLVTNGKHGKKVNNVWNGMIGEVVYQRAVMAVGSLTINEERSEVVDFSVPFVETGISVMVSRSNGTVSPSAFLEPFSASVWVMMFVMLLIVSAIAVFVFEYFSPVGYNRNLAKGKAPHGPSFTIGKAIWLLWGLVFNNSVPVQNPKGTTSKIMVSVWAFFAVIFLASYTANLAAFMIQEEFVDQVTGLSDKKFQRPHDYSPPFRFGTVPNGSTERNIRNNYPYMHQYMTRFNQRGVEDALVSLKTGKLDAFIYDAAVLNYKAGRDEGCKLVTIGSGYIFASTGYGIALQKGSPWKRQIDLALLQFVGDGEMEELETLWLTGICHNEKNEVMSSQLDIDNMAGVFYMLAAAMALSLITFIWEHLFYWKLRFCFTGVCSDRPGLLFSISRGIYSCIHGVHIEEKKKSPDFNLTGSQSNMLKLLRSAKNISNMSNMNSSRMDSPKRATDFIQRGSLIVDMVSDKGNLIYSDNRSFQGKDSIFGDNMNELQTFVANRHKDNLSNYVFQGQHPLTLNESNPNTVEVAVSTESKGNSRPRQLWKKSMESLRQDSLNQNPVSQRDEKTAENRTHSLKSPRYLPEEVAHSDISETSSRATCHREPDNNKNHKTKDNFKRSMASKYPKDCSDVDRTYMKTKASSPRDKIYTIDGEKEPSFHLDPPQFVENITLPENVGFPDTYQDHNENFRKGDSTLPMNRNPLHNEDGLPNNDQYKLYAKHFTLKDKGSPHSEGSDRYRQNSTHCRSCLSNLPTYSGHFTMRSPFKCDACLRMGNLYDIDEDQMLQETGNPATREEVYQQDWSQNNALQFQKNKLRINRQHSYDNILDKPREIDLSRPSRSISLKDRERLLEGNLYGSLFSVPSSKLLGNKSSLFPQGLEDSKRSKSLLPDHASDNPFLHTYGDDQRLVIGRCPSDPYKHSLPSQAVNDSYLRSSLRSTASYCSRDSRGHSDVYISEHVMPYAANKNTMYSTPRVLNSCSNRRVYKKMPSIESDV

Row | IC50 [µM] | SMILES
6 | 117 | N=C(N)NC(=O)c1nc(Cl)c(N)nc1N [Amiloride, reference compound]
7 | 0.23 | N=C(NCCc1ccc(Cl)cc1)NC(=N)NNC(=O)c1nc(Cl)c(N)nc1N [Compound 2, 1-(3,5-diamino-6-chloropyrazinamide)-5-[2-(4-chlorophenyl)ethyl]biguanide]
8 | 0.3 | N=C(NCCc1ccc(Cl)c(Cl)c1)NC(=N)NNC(=O)c1nc(Cl)c(N)nc1N [Compound 3]

Row | SMILES | IC50 [µM]
9 | N=C(NCCc1ccccc1)NC(=N)NNC(=O)c1nc(Cl)c(N)nc1N [Compound 1] | 3.5

molecular target: T1, ASIC1a (Homo sapiens, UniProt P78348); test: Inhibition of ASIC1a current in ASIC1a-expressing Xenopus laevis oocytes, two-electrode voltage clamp method; type: cell-based; conditions: current induced by shifting pH from 7.5 to 6.0; four to five oocytes
T1 construct: expressed in transfected cells; host or cells: Xenopus laevis oocytes injected with capped cRNA
T1 sequence (P78348 1-528): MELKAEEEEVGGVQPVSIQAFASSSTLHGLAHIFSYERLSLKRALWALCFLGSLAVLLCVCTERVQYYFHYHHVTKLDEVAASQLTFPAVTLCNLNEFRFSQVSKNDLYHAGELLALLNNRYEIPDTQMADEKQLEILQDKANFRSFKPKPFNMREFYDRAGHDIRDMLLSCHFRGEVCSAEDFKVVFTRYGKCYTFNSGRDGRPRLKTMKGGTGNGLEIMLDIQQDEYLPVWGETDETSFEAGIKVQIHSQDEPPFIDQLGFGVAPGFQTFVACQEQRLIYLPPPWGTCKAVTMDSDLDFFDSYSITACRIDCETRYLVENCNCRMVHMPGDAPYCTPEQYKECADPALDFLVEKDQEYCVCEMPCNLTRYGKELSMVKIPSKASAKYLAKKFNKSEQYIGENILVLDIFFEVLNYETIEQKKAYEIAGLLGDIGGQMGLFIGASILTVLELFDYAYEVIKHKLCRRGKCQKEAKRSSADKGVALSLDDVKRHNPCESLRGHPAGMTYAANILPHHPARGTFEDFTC
Description: (1) Preparation of the ASIC1a-expressing Xenopus laevis oocytes
Using the RNeasy Protect Mini Kit (QIAGEN), total RNA was prepared from HEK293 cells. Subsequently, using the High Fidelity RNA PCR kit (TAKARA BIO INC.), first strand cDNA was synthesized, and using this first strand cDNA as a template, PCR was performed. The sense-strand primer for PCR was: […] (SEQ ID NO: 1) and the antisense-strand primer for PCR was: […] (SEQ ID NO: 2), and the PCR conditions were such that one cycle consisting of 95° C. for 30 seconds, 55° C. for 30 seconds, and 72° C. for 90 seconds was repeated 30 cycles. The PCR product was inserted into the PCR2.1 vector, and the resulting vector was further subcloned into the pcDNA3.1 (−) vector. From the ASIC1a plasmid which was linearized by the BamHI enzyme, capped cRNA was synthesized using the mMessage mMachine Kits (Ambion).

Row | IC50 ASIC1a | IC50 [µM] | SMILES
10 | no effect |  | CC12CC3CC(C)(C1)CC(N)(C3)C2 [Memantine, reference compound]
11 |  | 0.49 | N=C(NCCc1ccc(Cl)cc1)NC(=N)NNC(=O)c1nc(Cl)c(N)nc1N [Compound 2, 1-(3,5-diamino-6-chloropyrazinamide)-5-[2-(4-chlorophenyl)ethyl]biguanide]
12 |  | 0.21 | N=C(NCCc1ccc(Cl)c(Cl)c1)NC(=N)NNC(=O)c1nc(Cl)c(N)nc1N [Compound 3]

Row | SMILES | IC50 ASIC1a | IC50 [µM]
13 | N=C(NCCc1ccccc1)NC(=N)NNC(=O)c1nc(Cl)c(N)nc1N [Compound 1] |  | 4.7
